Data set [1] has as its system carrageenin-induced hind paw edema. Briefly: Anti-inflammatory activity (carrageenin-induced hind paw edema in rats). The format is in vivo, Male Wistar rats. The note with it: for inhibition in vivo at 5 mg/kg / inhibition in vivo at 80 mg/kg / inhibition in vivo at 2 mg/kg / inhibition in vivo at 10 mg/kg / inhibition in vivo at 20 mg/kg / inhibition in vivo at 40 mg/kg / inhibition in vivo at 0.5 mg/kg / inhibition in vivo at 1 mg/kg: Rattus norvegicus, po; for inhibition in vivo at 5 mg/kg: 5 mg/kg p.o.; for inhibition in vivo at 80 mg/kg: 80 mg/kg p.o.; for anti-inflammatory activity compared with the known aspirin / anti-inflammatory activity compared with the known indomethacin: in words, from Table 1; for inhibition in vivo at 2 mg/kg: 2 mg/kg p.o.; for inhibition in vivo at 10 mg/kg: 10 mg/kg p.o.; for inhibition in vivo at 20 mg/kg: 20 mg/kg p.o.; for inhibition in vivo at 40 mg/kg: 40 mg/kg p.o.; for inhibition in vivo at 0.5 mg/kg: 0.5 mg/kg p.o.; for inhibition in vivo at 1 mg/kg: 1 mg/kg p.o. As to the method: Anti-inflammatory activity (carrageenin-induced hind paw edema in rats)
The test was carried out in a similar manner as disclosed in Proc. Soc. Exptl.
Male Wistar rats, weighing 100-300 g, were used. A 1% aqueous carrageenin solution (0.1 ml) was administered subcutaneously into the hind foot pad of rats. Two and three hours after the carrageenin injection, the paw volume was measured and the swelling rate was calculated based on the paw volume before the carrageenin injection. The inhibitory rate was determined as compared with the average swelling rate of the control group to which only vehicle was administered. The test compounds were administered orally one hour before the carrageenin injection.

The subject of another data set is stomach ulcer. Briefly: Gastrointestinal ulcerogenicity. The note with it: for Number of rats having a score of stomach ulcer of 2 or more/total number of rats used / Average score of stomach ulcer: after 6 hours; for Average score of stomach ulcer: score 1 to 4; for gastrointestinal ulcerogenicity compared with the known aspirin: in words, from Table 2. On the set-up: key to Average score of stomach ulcer: ulcer score 1 to 4, 4 = most severe ulcer. The format is in vivo, Male Wistar rats. As to the method: Gastrointestinal ulcerogenicity
The test was carried out in a similar manner as disclosed in Arzneim. Forsch., 19, 36 (1969).
Male Wistar rats, weighing 130-180 g, were used. After the rats were fasted for 24 hours, the test compound was orally administered one time. After 6 hours, the rats were killed and the stomach was removed. […] The degree of stomach ulcer was scored from 1 to 4, wherein 4 is the most severe ulcer. In Table 2, there are shown the average score of stomach ulcer in each dose and also the ratio of the number of rats having a score of stomach ulcer of 2 or more to total number of rats used.

[2] abbreviates: 2 h, two hours, read-out: Inhibitory rate, two hours after the carrageenin injection.
Where [3] appears, read: 3 h, three hours, read-out: Inhibitory rate, three hours after the carrageenin injection.

Where two headings read alike, the source gives them in different places.

With `CCOC(=O)C(C)c1ccc2c(c1)SCC1CCCCC1C2=O` (stereo not drawn) [I, Ethyl 2-(6,6a,7,8,9,10,10a,11-octahydro-11-oxodibenzo[b,e]thiepin-3-yl)propionate], the results for the inhibition in vivo at 5 mg/kg in data set [1] (setting [2]) and in data set [1] (setting [3]) were 42.2% and 38.3%, respectively. Besides, the “Number of rats having a score of stomach ulcer of 2 or more/total number of rats used” value (“Number … of 2 or more/total number of rats used” below) in the data set on stomach ulcer (8 mg/kg p.o.) is 0/3; in the data set on stomach ulcer (32 mg/kg p.o.) it was 0/6; in the data set with stomach ulcer (64 mg/kg p.o.) it was 3/6. For the same molecule, the results for the “Average score of stomach ulcer” value in the data set on stomach ulcer (8 mg/kg p.o.), with stomach ulcer (32 mg/kg p.o.) and in the data set with stomach ulcer (64 mg/kg p.o.) were 0.00, 0.33 and 1.00, respectively. Further, in the data set with stomach ulcer, the “gastrointestinal ulcerogenicity compared with the known aspirin” value is reported as “far less gastrointestinal ulcerogenicity than the known aspirin”.

On to `CC(C(=O)O)c1ccc2c(c1)C(=O)C1CCCCC1CO2` (stereo not drawn) [C, 2-(6,6a,7,8,9,10,10a,11-Octahydro-11-oxodibenz[b,e]oxepin-2-yl)propionicacid], for which the inhibition in vivo at 80 mg/kg in data set [1] (setting [2]) came to 27.9%; in data set [1] (setting [3]) it was 23.1%. In addition, in data set [1], the “anti-inflammatory activity compared with the known aspirin” value is “comparable or superior to that of the known aspirin”.

For `CC(C(=O)OCCc1ccccn1)c1ccc2c(c1)SCC1CCCCC1C2=O` (stereo not drawn) [P, 2-(2-Pyridyl)ethyl 2-(6,6a,7,8,9,10,10a,11-octahydro-11-oxodibenzo[b,e]thiepin-3-yl)propionate], the inhibition in vivo at 5 mg/kg in data set [1] (setting [2]) is 27.6%; in data set [1] (setting [3]), 25.5%. The “Number … of 2 or more/total number of rats used” value is listed as 0/6 in the data set on stomach ulcer (32 mg/kg p.o.) and 3/6 in the data set on stomach ulcer (64 mg/kg p.o.). The “Average score of stomach ulcer” value in the data set with stomach ulcer (32 mg/kg p.o.) is 0.17; in the data set on stomach ulcer (64 mg/kg p.o.), 0.50. Further, the “gastrointestinal ulcerogenicity compared with the known aspirin” value in the data set on stomach ulcer is recorded as “far less gastrointestinal ulcerogenicity than the known aspirin”.

In the case of `CC(C(=O)NCC(=O)O)c1ccc2c(c1)SCC1CCCCC1C2=O` (stereo not drawn) [T, N-Carboxymethyl-2-(6,6a,7,8,9,10,10a,11-octahydro-11-oxodibenzo[b,e]thiepin-3-yl)propionamide], in data set [1] (setting [2]), the inhibition in vivo at 2 mg/kg was 19.9% and the inhibition in vivo at 5 mg/kg worked out at 43.9%. In data set [1] (setting [3]), the inhibition in vivo at 2 mg/kg was 15% and the inhibition in vivo at 5 mg/kg worked out at 28.1%.

Consider `CC(C(=O)O)c1ccc2c(c1)SCC1CCCCC1C2=O` (stereo not drawn) [G, 2-(6,6a,7,8,9,10,10a,11-Octahydro-11-oxodibenzo[b,e]thiepin-3-yl)propionicacid-B], for which, in data set [1] (setting [2]), the inhibition in vivo at 10 mg/kg was 12%, the inhibition in vivo at 20 mg/kg worked out at 18.3%, the inhibition in vivo at 40 mg/kg was 33.2% and the inhibition in vivo at 80 mg/kg is 32.2%. Further, in data set [1] (setting [3]), the inhibition in vivo at 10 mg/kg was 7.1%, the inhibition in vivo at 20 mg/kg was determined as 11%, the inhibition in vivo at 40 mg/kg is 26.9% and the inhibition in vivo at 80 mg/kg was 30.2%. Besides, in data set [1], the “anti-inflammatory activity compared with the known aspirin” value is listed as “comparable or superior to that of the known aspirin”.

For the molecule `CCCCOC(=O)C(C)c1ccc2c(c1)SCC1CCCCC1C2=O` (stereo not drawn) [J, Butyl 2-(6,6a,7,8,9,10,10a,11-octahydro-11-oxodibenzo[b,e]thiepin-3-yl)propionate], the inhibition in vivo at 2 mg/kg in data set [1] (setting [2]) was determined as 21.5%; in data set [1] (setting [3]) it was 11.5%. Also, the figures for the inhibition in vivo at 5 mg/kg in data set [1] (setting [2]) and in data set [1] (setting [3]) were 31.8% and 26%, respectively. Besides, the “Number … of 2 or more/total number of rats used” value in the data set with stomach ulcer (16 mg/kg p.o.) is listed as 0/3; with stomach ulcer (32 mg/kg p.o.), 3/6; in the data set with stomach ulcer (64 mg/kg p.o.), 3/6. Further, the “Average score of stomach ulcer” value amounted to 0.33 with stomach ulcer (16 mg/kg p.o.), 1.33 in the data set with stomach ulcer (32 mg/kg p.o.) and 1.50 in the data set with stomach ulcer (64 mg/kg p.o.).

Turning to `CC(C(=O)OCC(=O)c1ccccc1)c1ccc2c(c1)SCC1CCCCC1C2=O` (stereo not drawn) [M, Phenacyl 2-(6,6a,7,8,9,10,10a,11-octahydro-11-oxodibenzo[b,e]thiepin-3-yl)propionate], the inhibition in vivo at 5 mg/kg in data set [1] (setting [2]) was 33.2%; in data set [1] (setting [3]), 26.6%.

For the molecule `O=C(O)Cc1ccc2c(c1)SCC1CCCCC1C2=O` (stereo not drawn) [E, 6,6a,7,8,9,10,10a,11-Octahydro-11-oxodibenzo[b,e]thiepin-3-acetic acid], the figures for the inhibition in vivo at 2 mg/kg in data set [1] (setting [2]) and in data set [1] (setting [3]) were 26.3% and 16.8%, respectively. Besides, the “anti-inflammatory activity compared with the known indomethacin” value in data set [1] is given as “comparable or superior to that of the known indomethacin”.

For `CC(C(=O)O)c1ccc2c(c1)OCC1CCCCC1C2=O` (stereo not drawn) [A, 2-(6,6a,7,8,9,10,10a,11-Octahydro-11-oxodibenz[b,e]oxepin-3-yl)propionicacid], in data set [1] (setting [2]), the inhibition in vivo at 0.5 mg/kg was 23.7%, the inhibition in vivo at 1 mg/kg amounted to 34.3% and the inhibition in vivo at 2 mg/kg came out at 40.5%. In data set [1] (setting [3]), the inhibition in vivo at 0.5 mg/kg turned out to be 17.4%, the inhibition in vivo at 1 mg/kg came out at 26.9% and the inhibition in vivo at 2 mg/kg was determined as 32.6%. Further, the “anti-inflammatory activity compared with the known indomethacin” value in data set [1] was “comparable or superior to that of the known indomethacin”.

Turning to `C=CCOC(=O)C(C)c1ccc2c(c1)SCC1CCCCC1C2=O` (stereo not drawn) [K, Allyl 2-(6,6a,7,8,9,10,10a,11-octahydro-11-oxodibenzo[b,e]thiepin-3-yl)propionate], in data set [1] (setting [2]), the inhibition in vivo at 2 mg/kg is 27% and the inhibition in vivo at 5 mg/kg stood at 34.3%. Moreover, in data set [1] (setting [3]), the inhibition in vivo at 2 mg/kg stood at 22.3% and the inhibition in vivo at 5 mg/kg is 33.5%.

With `CC(C(=O)NO)c1ccc2c(c1)SCC1CCCCC1C2=O` (stereo not drawn) [S, 2-(6,6a,7,8,9,10,10a,11-Octahydro-11-oxodibenzo[b,e]thiepin-3-yl)propionohydroxamic acid], in data set [1] (setting [2]), the inhibition in vivo at 2 mg/kg was determined as 21.9% and the inhibition in vivo at 5 mg/kg stood at 31.5%. Besides, in data set [1] (setting [3]), the inhibition in vivo at 2 mg/kg stood at 18.5% and the inhibition in vivo at 5 mg/kg is 29.9%.

Regarding `CC(C(=O)OCCOCCO)c1ccc2c(c1)SCC1CCCCC1C2=O` (stereo not drawn) [N, 2-(2-Hydroxyethoxy)ethyl 2-(6,6a,7,8,9,10,10a,11-octahydro-11-oxodibenzo[b,e]thiepin-3-yl)propionate], in data set [1] (setting [2]), the inhibition in vivo at 2 mg/kg is 15.8% and the inhibition in vivo at 5 mg/kg amounted to 43.9%. Also, in data set [1] (setting [3]), the inhibition in vivo at 2 mg/kg came to 13.2% and the inhibition in vivo at 5 mg/kg was 28.1%.

As to `CC(C(=O)OCCN1CCOCC1)c1ccc2c(c1)SCC1CCCCC1C2=O` (stereo not drawn) [Q, 2-Morpholinoethyl 2-(6,6a,7,8,9,10,10a,11-octahydro-11-oxodibenzo[b,e]thiepin-3-yl)propionate], in data set [1] (setting [2]), the inhibition in vivo at 2 mg/kg was 25.4% and the inhibition in vivo at 5 mg/kg amounted to 28.9%. In data set [1] (setting [3]), the inhibition in vivo at 2 mg/kg was found to be 22.8% and the inhibition in vivo at 5 mg/kg is 22%.

As for `CC(C(=O)O)c1ccc2c(c1)C(=O)C1CCCCC1CS2` (stereo not drawn) [D, 2-(6,6a,7,8,9,10,10a,11-Octahydro-11-oxodibenzo[b,e]thiepin-2-yl)propionicacid], in data set [1] (setting [2]), the inhibition in vivo at 40 mg/kg is 28.6% and the inhibition in vivo at 80 mg/kg stood at 34%. Moreover, in data set [1] (setting [3]), the inhibition in vivo at 40 mg/kg came out at 24.6% and the inhibition in vivo at 80 mg/kg worked out at 27.1%. For the same molecule, the “anti-inflammatory activity compared with the known aspirin” value in data set [1] is on record as “comparable or superior to that of the known aspirin”.

Turning to `O=C(O)Cc1ccc2c(c1)OCC1CCCCC1C2=O` (stereo not drawn) [B, 6,6a,7,8,9,10,10a,11-Octahydro-11-oxodibenz[b,e]oxepin-3-acetic acid], the inhibition in vivo at 1 mg/kg in data set [1] (setting [2]) came to 17.8%; in data set [1] (setting [3]), 7.8%. Further, the “anti-inflammatory activity compared with the known indomethacin” value in data set [1] is recorded as “comparable or superior to that of the known indomethacin”.

Source of the values: US4356186A, “Acetic acid derivatives and composition containing the same” (priority 1980, dated 1982).
